Results reported in patent US20200038314A1, “PROCESS FOR PREVENTING OR SLOWING THE APPEARANCE OF UNATTRACTIVE SIGNS, GENERATED BY POLLUTANTS PRESENT IN THE ATMOSPHERE, ON THE SKIN, THE SCALP, THE HAIR OR THE MUCOUS MEMBRANES” (SOCIETE D'EXPLOITATION DE PRODUITS POUR LES INDUSTRIES …, priority 2016, published 2020).

What was measured:
Type in all cases: cell-based
cytokine IL-1α = test: assay for the cytokine IL-1α in cadmium-exposed keratinocyte culture; conditions: human keratinocytes, product 24 h then cadmium 35 μM 24 h; sulforaphane at 1 μM, Extract A at 0.5%
Experimental: (§1) Principle of the evaluation: evaluation of the effects of an exposure to cadmium on a keratinocyte culture.
(§2) Protocol: Human keratinocytes are cultured in a 96-well culture plate. After a few days of culture, the products evaluated, namely the Extract A at 0.5% by weight and sulforaphane (a positive reference known to those skilled in the art), are applied in the culture medium. At the end of incubation for 24 hours, the cells are exposed to a solution of cadmium at 35 μM for 24 hours, then 24 hours later, the following various evaluations are carried out: • evaluation of the cell viability by means of a DNA assay by the Hoechst method • evaluation of the cell metabolism by means of a protein assay by the BCA method; • evaluation of the inflammatory component by means of an assay for the cytokines IL-1a and IL-8.

Human keratinocytes [1] = test: protein assay by the BCA method on cadmium-exposed keratinocyte culture; conditions: product 24 h then cadmium 35 μM 24 h, sulforaphane at 1 μM, Extract A at 0.5%
Experimental: as §1, §2

Human keratinocytes [2] = test: DNA assay by the Hoechst method on cadmium-exposed keratinocyte culture; conditions: product 24 h then cadmium 35 μM 24 h, sulforaphane at 1 μM, Extract A at 0.5%
Experimental: as §1, §2

cytokine IL-8 = test: assay for the cytokine IL-8 in cadmium-exposed keratinocyte culture; conditions: human keratinocytes, product 24 h then cadmium 35 μM 24 h; sulforaphane at 1 μM, Extract A at 0.5%
Experimental: as §1, §2

C[S+]([O-])CCCCN=C=S (stereo not shown) [sulforaphane]
Mean values of IL-1α expressed (cytokine IL-1α): 0.8238 pg/μg of proteins | Mean values of the expressed proteins (Human keratinocytes [1]): 156.7 µg/mL | Mean values of the expressed DNA (Human keratinocytes [2]): 6.7 µg/mL | Mean values of IL-8 expressed (cytokine IL-8): 3.7081 pg/μg of proteins
